{"source": "patent US20240124483A1", "about": "“Methods for the Treatment of Fibrotic Disease” (SHY Therapeutics, LLC, priority 2021, published 2024)", "key": {"[1]": {"assay": "Assessment of Plasma Exposure in DBA/2J mice", "assay_type": "in vivo, mouse", "method": "(§1) Experimental Design: Compound 9 was suspended in 0.5% Hydroxypropyl Methylcellulose (HPMC)/0.1% Tween® 80 to a final concentration of 10 mg/mL. The dosing solutions were prepared prior to the start of the test. Male DBA/2J mice (Jackson Stock No: 000671) were housed in solid bottom cages with standard chow and water ad libitum. Dosing was initiated when animals were 7-8 weeks old. Mice were dosed at a volume of 10 mL/kg by intraperitoneal (IP) injection at 100 mg/kg or vehicle. […] Blood was collected at 15 min, 30 min, 1 h, 2 h, 4 h, 7 h, 16 h, 24 h by cardiac puncture, mixed gently 8 times and put on ice until centrifuged within 30 minutes of collection. The plasma was transferred to a 96-well plate for analysis of test compound levels.\nPreparation of Standard Solutions for Calibration of UPLC: Assay: 2 mg/mL in DMSO Stock solutions of reference standard of Compound 9 was freshly prepared. 15 uL of the 2 mg/mL DMSO stock solution of Compound 9 was spiked into a vial and diluted to a final volume of 1 mL (30 ug/mL). 100 uL of the 30 ug/mL solution was mixed with 900 uL methanol (final conc. 3 ug/mL). A calibration curve was obtained from solutions having concentrations of 0.001, 0.003, 0.01, 0.03, 0.1, 0.5 and 1 ug/mL, which were prepared further dilution of the 3 ug/mL solution with methanol. An internal standard of D3-desacetylDFZ (500 ng/mL in methanol) was used. • UPLC Conditions: • Column: Waters UPLC Acquity BEH C18 Column 2.1*50, 1.7 uM • Mobile phase: A: 0.1% formic acid in water; B: 0.1% formic acid in 100% acetonitrile • Gradient:\n• Temperature: 50° C. • Run time: 2 min • Injection volume=2 uL • Instrument: Waters TQ-s • Desolvation Temperature: 500° C. • Desolvation gas flow: 1000 L/hr • Capillary Cone voltage: 0.5 • Reference batch: 21-hydroxy emflaza, Compound 9\nPreparation of Samples for UPLC: Protein Precipitation Method Using Millipore Hydrophilic Plate (MSRLN04) to Filter the Precipitated Protein • 1) Plasma calibration curve for positively charged compound: all in the filter plate added • a) IS-410000 in acetonitrile (0.1 ug/mL) 200 uL • b) Calibration curve in methanol: 20 uL • c) Methanol: 20 uL • d) Control mouse plasma: 20 uL • 2) Test plasma • a) IS-410000 in acetonitrile (0.1 ug/mL) 200 uL • b) Calibration curve in methanol: 20 uL • c) Test plasma: 20 uL\nPlaced sample on automatic shaker for at least 5 min\nCentrifuged at 2000 rpm (Eppendorf 5804) for 2 min. 2-2.5 uL supernatant were injected onto LCMS system"}, "Smad2 phosphorylation": {"system": "Smad2 phosphorylation", "assay": "Phospho-Smad2 analysis of muscle tissue in the D2-mdx mouse model (western blot, densitometry)", "assay_type": "in vivo", "excerpt": "(§2) The experiment described herein was designed to monitor the effects of Compound 9 on two biomarkers related to fibrosis in D2-mdx mice. The first biomarker is Smad2 phosphorylation, and the second is the levels of serum albumin in the different muscle tissues. Fibrosis causes disruption of the fine transparent tubular sheath which envelops the fibers of skeletal muscles, this can result in various molecules from the blood and interstitial fluid leaking into myofibres. A classic example is serum albumin, which can be identified in tissue sections and considered to be hallmark of myofibre permeability.\n(§3) Experimental Design: Compound 9 was suspended in 0.5% Hydroxypropyl Methylcellulose (HPMC)/0.1% Tween® 80 to a final concentration of 10 mg/mL. The dosing solutions were prepared prior to the start of the test and were stored in the dark and maintained in frozen aliquots. Doses were thawed prior to administration. Male D2-mdx (JAX Stock No: 013141) mice were sourced from The Jackson Laboratory and housed in solid bottom cages with standard chow and water ad libitum. Dosing was initiated when animals were ˜3 weeks old. Animals were dosed daily by intraperitoneal (IP) injection at 100 mg/kg or vehicle for 3 days. […] Mice were sacrificed by CO2 euthanasia approximately 6 hours after their day 3 dosing. Heart, diaphragm, quadriceps, tibialis anterior (TA) samples were collected at termination on day 3 and snap frozen. These samples were shipped on dry ice for analysis, and were stored at −80° C.\n(§4) Tissue protein extraction: Frozen tissues were placed on ice in prechilled tubes with 30 μL/mg with of ice-cold RIPA buffer+Halt™ Protease & Phosphatase Inhibitor Cocktail. Tissue was homogenized with a manual tissue homogenizer then centrifuged at 14,000 RPM at 4° C. for 15 min. Supernatant was removed and protein concentration determined by BCA assay.\n(§5) Western blot protocol: Equal amounts of protein (15-50 μg) were separated by SDS-PAGE and transferred to nitrocellulose membranes (Invitrogen by Thermo Fisher Scientific). The membrane was stained with Ponceau S Stain (Boston BioProducts) to verify uniform protein loading. Membranes were blocked with 10% milk and albumin levels were assessed by incubating overnight at 4° C. with albumin antibody (Cell Signaling Technology #4929). Then the membranes were incubated with HRP-conjugated secondary antibody (Jackson Immunoresearch, West Grove, PA). Bands were incubated in Amersham ECL Prime Western Blotting Detection Reagent (GE Healthcare) and visualized using the ChemiDoc MP imaging system (Bio-Rad).\n(§6) Western blot images for samples collected from heart (FIG. 2), diaphragm (FIG. 3), quadriceps (FIG. 4), and tibialis anterior (TA, FIG. 5) tissues following termination on day 3 were analyzed, providing the results summarized herein below (derived by densitometry)."}, "[2]": {"system": "serum albumin in muscle tissues", "assay": "Albumin analysis of muscle tissue in the D2-mdx mouse model (western blot, densitometry)", "assay_type": "in vivo", "excerpt": "as §2, §3, §4, §5, §6"}, "[3]": {"assay": "Observation for mortality and signs of pain or distress, DBA/2J mice", "assay_type": "in vivo", "settings": "male DBA/2J mice, single dose, up to 100 mg/kg", "method": "as §1"}, "[4]": {"assay": "Observation for mortality and signs of pain or distress, D2-mdx mice", "assay_type": "in vivo", "settings": "male D2-mdx mice, 100 mg/kg IP daily for 3 days", "method": "as §3"}, "[5]": {"settings": "male, DBA/2J, mouse, plasma, ip, 100 mg/kg, Group 5: 100 mg/kg IP, Vehicle 1, mouse plasma"}, "[6]": {"settings": "D2-mdx mice, 100 mg/kg IP, 3 days"}, "[7]": {"settings": "Ratio of Vehicle and Treated, 100 mg/kg IP, 3 days"}, "[8]": {"settings": "Treated, 100 mg/kg IP daily for 3 days, D2-mdx mice, densitometry"}}}
{"compound": "COCCNc1nc(-c2nccn2C)nc2sc(-c3cccc(OC)c3Cl)c(-c3ccccc3)c12", "note": "[Compound 9, 6-(2-Chloro-3-methoxyphenyl)-N-(2-methoxyethyl)-2-(1-methyl-1H-imidazol-2-yl)-5-phenylthieno[2,3-d]pyrimidin-4-amine]", "values": [{"measurement": "Exposures, intraperitoneal (IP) injection compared to oral dosing", "setting": "[1]; Group 5 compared to Group 3, 100 mg/kg", "value": "higher"}, {"measurement": "AUC(0-t)", "setting": "[1]; [5]", "value": 43000, "unit": "ng·h/mL"}, {"measurement": "Cmax", "setting": "[1]; [5]", "value": 26000, "unit": "ng/mL"}, {"measurement": "half-life", "setting": "[1]; [5]", "value": 2.96, "unit": "h"}, {"measurement": "AUC(0-inf)", "setting": "[1]; male, DBA/2J, mouse, plasma, ip, 100 mg/kg, Group 5: 100 mg/kg IP, Vehicle 1, mouse plasma, read-out: AUCINFobs", "value": 43200, "unit": "ng·h/mL"}, {"measurement": "Tmax", "setting": "[1]; male, DBA/2J, Group 5: 100 mg/kg IP, Vehicle 1, mouse plasma", "value": 0.25, "unit": "h"}, {"measurement": "Smad2 phosphorylation in the diaphragm compared to control vehicle mice", "setting": "Smad2 phosphorylation; [6]", "value": "inhibition of Smad2 phosphorylation"}, {"measurement": "Smad2 phosphorylation in the heart", "setting": "Smad2 phosphorylation; [6]", "value": "No changes were detected"}, {"measurement": "Phospho-Smad2, Diaphragm, Average, Ratio", "setting": "Smad2 phosphorylation; [7]", "value": 1.53}, {"measurement": "Phospho-Smad2, Diaphragm, Median, Ratio", "setting": "Smad2 phosphorylation; [7]", "value": 1.54}, {"measurement": "Phospho-Smad2, Quadriceps, Average, Ratio", "setting": "Smad2 phosphorylation; [7]", "value": 1.10}, {"measurement": "Phospho-Smad2, Quadriceps, Median, Ratio", "setting": "Smad2 phosphorylation; [7]", "value": 0.64}, {"measurement": "Phospho-Smad2, Diaphragm, Average", "setting": "Smad2 phosphorylation; [8]", "value": "0.18 ± 0.06"}, {"measurement": "Phospho-Smad2, Diaphragm, Median", "setting": "Smad2 phosphorylation; [8]", "value": 0.19}, {"measurement": "Phospho-Smad2, Quadriceps, Average", "setting": "Smad2 phosphorylation; [8]", "value": "0.22 ± 0.11"}, {"measurement": "Phospho-Smad2, Quadriceps, Median", "setting": "Smad2 phosphorylation; [8]", "value": 0.28}, {"measurement": "serum albumin levels in the heart", "setting": "[2]; [6]", "value": "No changes were detected"}, {"measurement": "serum albumin levels in the tibialis anterior and quadricep muscles", "setting": "[2]; [6]", "value": "clear decrease"}, {"measurement": "Albumin, Quadriceps, Average, Ratio", "setting": "[2]; [7]", "value": 1.25}, {"measurement": "Albumin, Quadriceps, Median, Ratio", "setting": "[2]; [7]", "value": 1.21}, {"measurement": "Albumin, Tibialis anterior, Average, Ratio", "setting": "[2]; [7]", "value": 1.18}, {"measurement": "Albumin, Tibialis anterior, Median, Ratio", "setting": "[2]; [7]", "value": 1.26}, {"measurement": "Albumin, Quadriceps, Average", "setting": "[2]; [8]", "value": "32650 ± 4998"}, {"measurement": "Albumin, Quadriceps, Median", "setting": "[2]; [8]", "value": 34329}, {"measurement": "Albumin, Tibialis anterior, Average", "setting": "[2]; [8]", "value": "34522 ± 4321"}, {"measurement": "Albumin, Tibialis anterior, Median", "setting": "[2]; [8]", "value": 33494}, {"measurement": "findings of overt toxicity", "setting": "[3]", "value": "No findings of overt toxicity were observed"}, {"measurement": "findings of overt toxicity", "setting": "[4]", "value": "No findings of overt toxicity were observed"}]}
